How the values were obtained:
PI3K alpha (PI3Kα) = molecular target: T1, PI3K alpha (PI3Kα) (Homo sapiens, UniProt P42336); experiment: kinobeads assay, PI3K alpha; assay type: binding; details: Jurkat cell lysate, read-out: Inhibition values (IC50) PI3Ka
T1 construct: Jurkat cells were homogenized in a Potter S homogenizer in lysis buffer; endogenous in cells; host or cells: Jurkat, clone E6-1 (ATCC TIB-152) lysate
Experimental: (§1) The compounds of the present invention as described were tested in the mTOR kinobeads assay as described below. Briefly, test compounds (at various concentrations) and the affinity matrix (1:1 mixture of beads with immobilized phenylthiazole ligand 1 and beads with immobilized phenylmorpholin-chromen ligand; WO 2009/098021) were added to cell lysate aliquots and allowed to bind to the proteins in the lysate sample. After the incubation time the beads with captured proteins were separated from the lysate. Bound proteins were then eluted and the presence of mTOR, PI3K alpha (PI3Kα), PI3K beta (PI3Kb), PI3K gamma (PI3Kg), PI3K delta (PI3Kd) and DNA-dependent protein kinase (DNA-PK) was detected and quantified using a specific antibody in a dot blot procedure and the Odyssey infrared detection system. Dose response curves for individual kinases were generated and IC50 values calculated. Kinobeads assays for PI3 kinases (WO-A 2008/015013) and for kinase selectivity profiling (WO 2009/098021) have been previously described.
(§2) The affinity matrix (beads with immobilized phenylmorpholin-chromen ligand) was washed three times with 15 ml of 1×DP buffer containing 0.2% NP40 (IGEPAL® CA-630, Sigma, #13021) and then resuspended in 5.5 ml of 1×DP buffer containing 0.2% NP40 (10% beads slurry).
(§3) 5×DP buffer: 250 mM Tris-HCl pH 7.4, 25% Glycerol, 7.5 mM MgCl2, 750 mM NaCl, 5 mM Na3VO4, filter the 5×-lysis buffer through 0.22 μm filter and store in aliquots at −80° C. The 5×DP buffer is diluted to 1×DP buffer containing 1 mM DTT and 25 mM NaF.
(§4) Stock solutions of test compounds were prepared in DMSO. In a 96 well plate 30 μl solution of diluted test compounds at 5 mM in DMSO were prepared. Starting with this solution a 1:3 dilution series (9 steps) was prepared. For control experiments (no test compound) a buffer containing 2% DMSO was used. Compound PI-103 served as a positive control (Calbiochem catalogue number 528100).
(§5) Jurkat cells (ATCC catalogue number TIB-152 Jurkat, clone E6-1) were grown in 1 liter Spinner flasks (Integra Biosciences, #182101) in suspension in RPMI 1640 medium (Invitrogen, #21875-034) supplemented with 10% Fetal Bovine Serum (Invitrogen) at a density between 0.15×10^6 and 1.2×10^6 cells/ml. Cells were harvested by centrifugation, washed once with 1×PBS buffer (Invitrogen, #14190-094) and cell pellets were frozen in liquid nitrogen and subsequently stored at −80° C.
(§6) Jurkat cells were homogenized in a Potter S homogenizer in lysis buffer: 50 mM Tris-HCl, 0.8% NP40, 5% glycerol, 150 mM NaCl, 1.5 mM MgCl2, 25 mM NaF, 1 mM sodium vanadate, 1 mM DTT, pH 7.5. One complete EDTA-free tablet (protease inhibitor cocktail, Roche Diagnostics, 1873580) per 25 ml buffer was added. The material was dounced 10 times using a mechanized POTTER S, transferred to 50 ml falcon tubes, incubated for 30 minutes on ice and spun down for 10 min at 20,000 g at 4° C. (10,000 rpm in Sorvall SLA600, precooled). The supernatant was transferred to an ultracentrifuge (UZ)-polycarbonate tube (Beckmann, 355654) and spun for 1 hour at 100.000 g at 4° C. (33.500 rpm in Ti50.2, precooled). The supernatant was transferred again to a fresh 50 ml falcon tube, the protein concentration was determined by a Bradford assay (BioRad) and samples containing 50 mg of protein per aliquot were prepared. The samples were immediately used for experiments or frozen in liquid nitrogen and stored frozen at −80° C.
(§7) Jurkat cell lysate (approximately 50 mg protein per plate) was thawed in a water bath at room temperature and then kept on ice. To the thawed cell lysate 1×DP 0.8% NP40 buffer containing protease inhibitors (1 tablet for 25 ml buffer; EDTA-free protease inhibitor cocktail; Roche Diagnostics 1873580) was added in order to reach a final protein concentration of 5 mg/ml total protein. The diluted cell lysate was stored on ice. […]

[1] = molecular target: T2, DNA-dependent protein kinase (DNA-PK) (Homo sapiens, UniProt P78527); experiment: kinobeads assay, DNA-PK; assay type: binding; details: Jurkat cell lysate, read-out: Inhibition values (IC50) DNA-PK
T2 construct: Jurkat cells were homogenized in a Potter S homogenizer in lysis buffer; endogenous in cells; host or cells: Jurkat, clone E6-1 (ATCC TIB-152) lysate
Experimental: as §1, §2, §3, §4, §5, §6, §7

PI3K beta (PI3Kb) = molecular target: T3, PI3K beta (PI3Kb) (Homo sapiens, UniProt P42338); experiment: kinobeads assay, PI3K beta; assay type: binding; details: Jurkat cell lysate, read-out: Inhibition values (IC50) PI3Kb
T3 construct: Jurkat cells were homogenized in a Potter S homogenizer in lysis buffer; endogenous in cells; host or cells: Jurkat, clone E6-1 (ATCC TIB-152) lysate
T3 sequence (P42338 whole entry): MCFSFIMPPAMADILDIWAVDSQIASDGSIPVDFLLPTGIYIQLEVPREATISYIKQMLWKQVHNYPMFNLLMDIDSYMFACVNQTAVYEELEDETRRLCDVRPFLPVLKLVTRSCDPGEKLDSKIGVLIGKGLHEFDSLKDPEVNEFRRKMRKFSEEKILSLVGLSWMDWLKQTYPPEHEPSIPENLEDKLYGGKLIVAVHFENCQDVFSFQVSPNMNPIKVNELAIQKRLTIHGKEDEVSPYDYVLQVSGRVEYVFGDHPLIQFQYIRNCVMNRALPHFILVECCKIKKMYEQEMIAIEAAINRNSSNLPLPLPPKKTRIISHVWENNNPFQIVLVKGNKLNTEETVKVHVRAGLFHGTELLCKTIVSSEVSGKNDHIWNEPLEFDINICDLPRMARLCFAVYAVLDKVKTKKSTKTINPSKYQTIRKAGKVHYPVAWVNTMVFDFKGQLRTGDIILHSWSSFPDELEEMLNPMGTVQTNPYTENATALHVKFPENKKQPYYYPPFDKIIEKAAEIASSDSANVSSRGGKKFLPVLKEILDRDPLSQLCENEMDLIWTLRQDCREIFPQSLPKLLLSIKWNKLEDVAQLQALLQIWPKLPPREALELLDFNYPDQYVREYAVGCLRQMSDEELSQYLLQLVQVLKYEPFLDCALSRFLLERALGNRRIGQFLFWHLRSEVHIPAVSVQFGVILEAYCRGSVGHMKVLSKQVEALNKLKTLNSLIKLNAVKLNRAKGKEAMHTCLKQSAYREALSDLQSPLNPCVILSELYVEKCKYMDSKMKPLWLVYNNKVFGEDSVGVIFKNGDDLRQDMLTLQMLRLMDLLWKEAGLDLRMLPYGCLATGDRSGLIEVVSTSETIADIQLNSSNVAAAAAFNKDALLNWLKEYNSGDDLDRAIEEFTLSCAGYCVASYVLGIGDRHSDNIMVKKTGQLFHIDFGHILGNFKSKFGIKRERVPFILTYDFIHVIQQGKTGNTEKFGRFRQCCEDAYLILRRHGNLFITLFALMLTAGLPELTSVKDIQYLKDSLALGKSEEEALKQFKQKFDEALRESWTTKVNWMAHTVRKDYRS
T3 sequence (P27986 whole entry partner): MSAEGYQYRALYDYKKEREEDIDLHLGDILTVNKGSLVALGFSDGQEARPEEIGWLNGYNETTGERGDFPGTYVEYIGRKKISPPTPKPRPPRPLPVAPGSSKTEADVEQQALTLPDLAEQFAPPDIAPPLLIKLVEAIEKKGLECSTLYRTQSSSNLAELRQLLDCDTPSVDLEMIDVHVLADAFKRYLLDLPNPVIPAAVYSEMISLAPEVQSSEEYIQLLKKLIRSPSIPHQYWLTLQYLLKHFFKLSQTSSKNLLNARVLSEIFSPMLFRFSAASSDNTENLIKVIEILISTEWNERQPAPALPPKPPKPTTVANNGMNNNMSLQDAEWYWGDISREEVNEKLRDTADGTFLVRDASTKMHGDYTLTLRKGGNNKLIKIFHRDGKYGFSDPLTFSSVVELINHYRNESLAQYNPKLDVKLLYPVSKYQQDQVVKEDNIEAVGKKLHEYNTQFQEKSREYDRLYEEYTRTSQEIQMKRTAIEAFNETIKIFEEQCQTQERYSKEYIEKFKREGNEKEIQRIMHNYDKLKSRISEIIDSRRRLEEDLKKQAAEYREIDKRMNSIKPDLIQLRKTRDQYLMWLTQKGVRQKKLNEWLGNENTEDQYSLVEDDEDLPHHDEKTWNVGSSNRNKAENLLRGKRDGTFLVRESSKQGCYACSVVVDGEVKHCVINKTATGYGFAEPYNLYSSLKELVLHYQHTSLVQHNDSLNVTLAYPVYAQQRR
Experimental: as §1, §2, §3, §4, §5, §6, §7

PI3K gamma (PI3Kg) = molecular target: T4, PI3K gamma (PI3Kg) (Homo sapiens, UniProt P48736); experiment: kinobeads assay, PI3K gamma; assay type: binding; details: Jurkat cell lysate, read-out: Inhibition values (IC50) PI3Kg
T4 construct: Jurkat cells were homogenized in a Potter S homogenizer in lysis buffer; endogenous in cells; host or cells: Jurkat, clone E6-1 (ATCC TIB-152) lysate
T4 sequence (P48736 whole entry): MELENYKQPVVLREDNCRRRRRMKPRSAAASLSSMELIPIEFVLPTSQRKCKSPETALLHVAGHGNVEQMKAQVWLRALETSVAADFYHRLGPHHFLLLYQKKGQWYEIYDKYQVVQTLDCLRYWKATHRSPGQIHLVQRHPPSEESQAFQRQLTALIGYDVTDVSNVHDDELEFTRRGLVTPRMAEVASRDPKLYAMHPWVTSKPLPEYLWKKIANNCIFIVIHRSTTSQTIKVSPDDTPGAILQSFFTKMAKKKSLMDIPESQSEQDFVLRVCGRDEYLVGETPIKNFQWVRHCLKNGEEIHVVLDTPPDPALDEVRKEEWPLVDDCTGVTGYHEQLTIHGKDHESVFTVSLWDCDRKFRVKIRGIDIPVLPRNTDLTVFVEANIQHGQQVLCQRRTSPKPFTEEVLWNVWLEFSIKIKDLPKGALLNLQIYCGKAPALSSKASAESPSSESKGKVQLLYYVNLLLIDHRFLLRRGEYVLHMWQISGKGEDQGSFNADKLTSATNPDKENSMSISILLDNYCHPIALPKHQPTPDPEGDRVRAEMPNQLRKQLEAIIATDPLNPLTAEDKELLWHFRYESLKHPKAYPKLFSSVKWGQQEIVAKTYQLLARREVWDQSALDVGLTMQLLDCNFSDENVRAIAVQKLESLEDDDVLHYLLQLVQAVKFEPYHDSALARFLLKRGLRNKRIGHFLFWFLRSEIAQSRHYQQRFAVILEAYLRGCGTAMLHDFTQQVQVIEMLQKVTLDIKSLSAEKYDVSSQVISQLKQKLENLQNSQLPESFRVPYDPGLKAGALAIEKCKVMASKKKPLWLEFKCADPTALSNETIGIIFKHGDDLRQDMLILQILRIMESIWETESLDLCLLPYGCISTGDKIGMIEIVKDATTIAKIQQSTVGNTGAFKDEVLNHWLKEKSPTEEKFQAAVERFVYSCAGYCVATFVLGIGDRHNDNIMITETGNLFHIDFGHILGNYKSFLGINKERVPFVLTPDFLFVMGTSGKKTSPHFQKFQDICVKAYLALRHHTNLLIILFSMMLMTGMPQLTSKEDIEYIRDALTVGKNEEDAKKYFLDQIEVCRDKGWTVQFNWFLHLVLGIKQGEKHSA
Experimental: as §1, §2, §3, §4, §5, §6, §7

mTOR = molecular target: T5, mTOR (Homo sapiens, UniProt P42345); experiment: mTOR kinobeads assay (Jurkat cell lysate, dot blot detection); assay type: binding; details: read-out: Inhibition values (IC50) mTor
T5 construct: Jurkat cells were homogenized in a Potter S homogenizer in lysis buffer; endogenous in cells; host or cells: Jurkat, clone E6-1 (ATCC TIB-152) lysate
Experimental: as §1, §2, §3, §4, §5, §6, §7

[2] = tested on: S6RP serine-240/244 phosphorylation; experiment: In vitro phospho-S6 cellular assay (HEK293T/17); assay type: cell-based; details: Homo sapiens; HEK293T/17 cells, 2 hours, pS6RP Ser240/244; read-out: Inhibition values (IC50) pS6
Text: Activation of mTOR signaling results in phosphorylation of several downstream targets. In cells, mTOR exists in two different protein complexes. The mTOR Complex-1 (mTORC1) phosphorylates and activates S6 Kinase 1 (S6K1) and S6 Kinase 2 (S6K2) (also known as p70S6K) which then phosphorylate S6 Ribosomal Protein (S6RP) (also known as RPS6)3. S6RP is phosphorylated on serine 235, senile 236, serine 240 and serine 244 by both pS6K1 and pS6K2. The mTOR Complex-2 (mTORC2) phosphorylates AKT on serine 473 which activates the AKT signaling pathway.
The assay measures a test compound's inhibition of S6RP serine-240/244 phosphorylation and inhibition of Akt serine-473 phosphorylation in human embryonic kidney derived HEK293T/17 cells (ATCC CRL-11268).
The HEK293T/17 cell line is maintained in DMEM media (Invitrogen catalogue number 41965-039) supplemented with 10% FCS at 37° C. in a 5% CO2 humidified incubator. Cells are seeded in 96-well plates at 40,000 cells/well (pS6RP S240/244 assay) or 80,000 cells/well (pAkt 5473 assay) in 90 μl growth media (DMEM, 2% FCS). Plates are incubated for 1 hour in a humidified incubator to allow the cells to adhere. Cells are treated with 8 concentrations of test compounds or DMSO alone for controls (final DMSO concentration 0.1%) and incubated at 37° C. for 2 hours. Then 20 μl of 5× concentrated lysis buffer (750 mM NaCl, 100 mM Tris pH7.4, 5 mM ADTA, 5 mM EGTA, 5% Triton X-100) is added, plates are sealed and incubated for 15 minutes at 4° C. with gentle shaking After cell lysis, 25 μl cell lysate is transferred to a MesoScale plate coated with an antibody to pS6RP Ser240/244 (MesoScale Discovery K150DGD-3) or an antibody to pAkt Ser 473 (MesoScale Discovery K151DGD-3). Plates have been blocked before by incubation with 150 μl MesoScale Discovery Blocking Solution-A for 1 hour at room temperature followed by washing with 150 μl 1×Tris wash buffer per well. After the transfer of the cell lysate to the MSD plate, the pS6RP (or pAkt) protein is captured on the coated antibody by incubation at room temperature for 1 hour with gentle shaking. After the capture step the plate is washed three times with 150 μl of 1× Tris wash buffer per well. Then 25 μl detection antibody conjugated with a Sulfo-Tag is added and incubated for 1 hour at room temperature with gentle shaking. Subsequently the antibody solution is removed and the plate is washed 3 times with 150 μl 1×Tris wash buffer per well and 150 μl Read buffer is added. The plates are analysed on a MSD 2400 Plate Reader (MesoScale Discovery). Data analysis is performed using nonlinear regression for a sigmoidal dose-response with a variable slope.

PI3K delta (PI3Kd) = molecular target: T6, PI3K delta (PI3Kd) (Homo sapiens, UniProt O00329); experiment: kinobeads assay, PI3K delta; assay type: binding; details: Jurkat cell lysate, read-out: Inhibition values (IC50) PI3Kd
T6 construct: Jurkat cells were homogenized in a Potter S homogenizer in lysis buffer; endogenous in cells; host or cells: Jurkat, clone E6-1 (ATCC TIB-152) lysate
T6 sequence (O00329 whole entry): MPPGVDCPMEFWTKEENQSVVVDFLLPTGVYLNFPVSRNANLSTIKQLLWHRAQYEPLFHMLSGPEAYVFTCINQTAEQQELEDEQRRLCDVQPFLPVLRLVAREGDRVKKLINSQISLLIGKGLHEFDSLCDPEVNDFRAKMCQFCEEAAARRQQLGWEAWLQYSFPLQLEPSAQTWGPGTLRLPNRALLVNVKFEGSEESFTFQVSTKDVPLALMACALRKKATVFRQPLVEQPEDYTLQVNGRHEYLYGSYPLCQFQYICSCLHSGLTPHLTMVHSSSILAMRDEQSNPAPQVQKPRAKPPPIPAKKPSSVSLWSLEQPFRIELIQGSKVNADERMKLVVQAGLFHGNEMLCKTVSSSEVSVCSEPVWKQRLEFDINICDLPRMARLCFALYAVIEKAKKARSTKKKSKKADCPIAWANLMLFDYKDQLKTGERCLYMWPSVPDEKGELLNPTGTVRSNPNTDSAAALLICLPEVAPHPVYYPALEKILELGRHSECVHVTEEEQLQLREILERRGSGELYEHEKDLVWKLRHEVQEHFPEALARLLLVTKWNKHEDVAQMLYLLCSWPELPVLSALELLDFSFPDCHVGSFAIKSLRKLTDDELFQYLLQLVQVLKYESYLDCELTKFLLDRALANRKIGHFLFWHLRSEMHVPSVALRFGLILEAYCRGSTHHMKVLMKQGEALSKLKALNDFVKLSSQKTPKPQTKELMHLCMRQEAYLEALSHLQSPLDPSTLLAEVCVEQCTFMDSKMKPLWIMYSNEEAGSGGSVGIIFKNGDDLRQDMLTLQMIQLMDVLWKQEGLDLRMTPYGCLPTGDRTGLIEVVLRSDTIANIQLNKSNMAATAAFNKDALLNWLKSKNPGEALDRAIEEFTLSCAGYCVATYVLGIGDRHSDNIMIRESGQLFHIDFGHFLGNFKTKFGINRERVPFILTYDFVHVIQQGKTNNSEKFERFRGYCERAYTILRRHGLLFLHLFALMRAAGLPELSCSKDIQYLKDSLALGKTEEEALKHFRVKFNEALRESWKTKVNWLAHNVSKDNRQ
T6 sequence (P27986 whole entry partner): as the sequence (P27986 whole entry partner) above
Experimental: as §1, §2, §3, §4, §5, §6, §7

T1 sequence (P42336 whole entry): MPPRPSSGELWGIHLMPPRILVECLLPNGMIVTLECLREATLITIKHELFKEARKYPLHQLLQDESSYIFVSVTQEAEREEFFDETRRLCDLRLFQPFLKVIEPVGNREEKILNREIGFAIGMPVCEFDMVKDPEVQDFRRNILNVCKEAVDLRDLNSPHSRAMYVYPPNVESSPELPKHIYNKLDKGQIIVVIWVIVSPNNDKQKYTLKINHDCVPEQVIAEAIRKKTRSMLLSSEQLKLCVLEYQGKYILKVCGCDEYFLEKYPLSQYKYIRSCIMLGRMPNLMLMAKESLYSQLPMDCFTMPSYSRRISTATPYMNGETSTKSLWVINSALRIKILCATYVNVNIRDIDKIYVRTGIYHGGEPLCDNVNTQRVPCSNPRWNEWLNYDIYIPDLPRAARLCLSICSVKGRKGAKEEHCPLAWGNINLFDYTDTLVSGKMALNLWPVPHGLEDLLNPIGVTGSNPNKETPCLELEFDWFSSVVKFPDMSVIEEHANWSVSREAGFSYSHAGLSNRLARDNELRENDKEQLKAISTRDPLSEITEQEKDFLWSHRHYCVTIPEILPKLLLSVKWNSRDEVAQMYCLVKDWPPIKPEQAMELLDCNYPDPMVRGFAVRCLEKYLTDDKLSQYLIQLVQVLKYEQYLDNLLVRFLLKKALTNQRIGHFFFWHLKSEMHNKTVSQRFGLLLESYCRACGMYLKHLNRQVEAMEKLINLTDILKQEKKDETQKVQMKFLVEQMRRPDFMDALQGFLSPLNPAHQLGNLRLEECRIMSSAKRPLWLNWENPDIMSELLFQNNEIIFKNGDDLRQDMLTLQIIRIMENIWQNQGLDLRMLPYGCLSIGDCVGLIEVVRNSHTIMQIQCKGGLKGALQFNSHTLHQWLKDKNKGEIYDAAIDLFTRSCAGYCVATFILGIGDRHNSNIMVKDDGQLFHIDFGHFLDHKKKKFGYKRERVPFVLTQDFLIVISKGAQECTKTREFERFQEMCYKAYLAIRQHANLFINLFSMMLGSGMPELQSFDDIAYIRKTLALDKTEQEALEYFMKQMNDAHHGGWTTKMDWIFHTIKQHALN
T1 sequence (P27986 whole entry partner): as the sequence (P27986 whole entry partner) above

SMILES	IC50 (PI3K alpha (PI3Kα))	IC50 [1]	IC50 (PI3K beta (PI3Kb))	IC50 (PI3K gamma (PI3Kg))	IC50 (mTOR)	IC50 [2]	IC50 (PI3K delta (PI3Kd))
CCCNC(=O)Nc1ccc(-c2nc(-c3ccccc3S(C)(=O)=O)nc(N3CCOC[C@@H]3C)n2)cc1 [Example 18, (S)-1-(4-(4-(3-methylmorpholino)-6-(2-(methylsulfonyl)phenyl)-1,3,5-triazin-2-yl)phenyl)-3-propylurea]	> 10 µM	> 10 µM	> 10 µM	> 10 µM	0.1 to 1 µM	< 0.1 µM	> 10 µM
CC(C)CNC(=O)Nc1ccc(-c2nc(-c3ccccc3S(C)(=O)=O)nc(N3CCOC[C@@H]3C)n2)cc1 [Example 19, (S)-1-isobutyl-3-(4-(4-(3-methylmorpholino)-6-(2-(methylsulfonyl)phenyl)-1,3,5-triazin-2-yl)phenyl)urea]	> 10 µM	> 10 µM	> 10 µM	> 10 µM	1 to 10 µM	0.1 to 1 µM	> 10 µM
C[C@H]1COCCN1c1nc(-c2ccc(NC(=O)NC3CCCC3)cc2)nc(-c2ccccc2S(C)(=O)=O)n1 [Example 20, (S)-1-cyclopentyl-3-(4-(4-(3-methylmorpholino)-6-(2-(methylsulfonyl)phenyl)-1,3,5-triazin-2-yl)phenyl)urea]	1 to 10 µM	1 to 10 µM	1 to 10 µM	> 10 µM	0.1 to 1 µM	< 0.1 µM	> 10 µM
CS(=O)(=O)c1ccccc1-c1nc(-c2ccc(NC(=O)NC3CC3)cc2)nc(N2CCCOCC2)n1 [Example 21, 1-cyclopropyl-3-(4-(4-(2-(methylsulfonyl)phenyl)-6-(1,4-oxazepan-4-yl)-1,3,5-triazin-2-yl)phenyl)urea]	> 10 µM	> 10 µM	> 10 µM	> 10 µM	0.1 to 1 µM	0.1 to 1 µM	> 10 µM
CC1(C)COCCN1c1nc(-c2ccc(NC(=O)NC3CC3)cc2)nc(-c2ccccc2S(C)(=O)=O)n1 [Example 22, 1-cyclopropyl-3-(4-(4-(3,3-dimethylmorpholino)-6-(2-(methylsulfonyl)phenyl)-1,3,5-triazin-2-yl)phenyl)urea]	> 10 µM	> 10 µM	> 10 µM	> 10 µM	0.1 to 1 µM	< 0.1 µM	> 10 µM
C[C@H]1COCCN1c1nc(-c2ccc(NC(=O)Nc3ccc(CO)cc3)cc2)nc(-c2ccccc2S(C)(=O)=O)n1 [Example 25, (S)-1-(4-(hydroxymethyl)phenyl)-3-(4-(4-(3-methylmorpholino)-6-(2-(methylsulfonyl)phenyl)-1,3,5-triazin-2-yl)phenyl)urea]	> 10 µM	> 10 µM	> 10 µM	> 10 µM	0.1 to 1 µM	< 0.1 µM	> 10 µM
C[C@H]1COCCN1c1nc(-c2ccc(NC(=O)NC3CC3)cc2)nc(-c2ccccc2S(=O)(=O)N2CCCC2)n1 [Example 26, (S)-1-cyclopropyl-3-(4-(4-(3-methylmorpholino)-6-(2-(pyrrolidin-1-ylsulfonyl)phenyl)-1,3,5-triazin-2-yl)phenyl)urea]	> 10 µM	> 10 µM	> 10 µM	> 10 µM	0.1 to 1 µM	< 0.1 µM	> 10 µM
C[C@H]1COCCN1c1nc(-c2ccc(NC(=O)NC3CCC3)cc2)nc(-c2ccccc2S(C)(=O)=O)n1 [Example 27, (S)-1-cyclobutyl-3-(4-(4-(3-methylmorpholino)-6-(2-(methylsulfonyl)phenyl)-1,3,5-triazin-2-yl)phenyl)urea]	> 10 µM	> 10 µM	> 10 µM	> 10 µM	0.1 to 1 µM	< 0.1 µM	> 10 µM
C[C@H]1COCCN1c1nc(-c2ccc(NC(=O)NC3CC3(F)F)cc2)nc(-c2ccccc2S(C)(=O)=O)n1 (stereo partly drawn) [Example 29, 1-(2,2-difluorocyclopropyl)-3-(4-(4-((S)-3-methylmorpholino)-6-(2-(methylsulfonyl)phenyl)-1,3,5-triazin-2-yl)phenyl)urea]	> 10 µM	> 10 µM	> 10 µM	> 10 µM	0.1 to 1 µM	< 0.1 µM	> 10 µM

— patent US9175011B2, “Morpholino substituted urea or carbamate derivatives as MTOR inhibitors” (CELLZOME LIMITED, priority 2011, dated 2015)
